In patent US8609654B1, “Compounds for enzyme inhibition” (Onyx Therapeutics, Inc., priority 2006, dated 2013):

What was measured:
[1] = biological target: T1, 20S proteasome subunit β5 vs immunoproteasome subunit LMP7 in RPMI-8226 cells (Homo sapiens, UniProt P28062+P28074); assay: ELISA-based active site assay in RPMI-8226 cells (ELISA ratio); type: cell-based; conditions: EC50 ratio with β5 antibody to LMP7 antibody, RPMI-8226 cells; >1 = prefers immunoproteasome
T1 construct: Cells expressing approximately equivalent amounts of immuno- and constitutive proteasome (e.g., RPMI-8226) are treated with test compound; endogenous in cells; host or cells: RPMI-8226 multiple myeloma cells
T1 sequence (P28074 60-263): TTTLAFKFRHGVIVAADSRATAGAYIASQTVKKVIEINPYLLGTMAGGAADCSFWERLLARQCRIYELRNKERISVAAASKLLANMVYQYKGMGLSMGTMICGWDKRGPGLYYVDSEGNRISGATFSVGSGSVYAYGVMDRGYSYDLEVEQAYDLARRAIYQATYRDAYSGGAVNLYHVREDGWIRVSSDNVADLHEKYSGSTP
T1 sequence (P28062 73-276): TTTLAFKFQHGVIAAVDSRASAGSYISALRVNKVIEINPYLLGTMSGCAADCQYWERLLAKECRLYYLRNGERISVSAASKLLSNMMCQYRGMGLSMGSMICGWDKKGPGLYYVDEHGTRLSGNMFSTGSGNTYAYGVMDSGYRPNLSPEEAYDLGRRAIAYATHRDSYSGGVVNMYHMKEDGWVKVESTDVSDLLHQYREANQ
Protocol: Lastly, a more cell-based approach can be utilized. Cells expressing approximately equivalent amounts of immuno- and constitutive proteasome (e.g., RPMI-8226) are treated with test compound, followed by the method for determining the activity of a proteasome inhibitor as described in application Ser. No. 11/254,541. The ratio of the EC50 generated in the ELISA-based assay using β5 antibody and LMP7 antibodies (ELISA ratio) provides the basis for determining the inhibitory preference of the test compound. […] In all three assays, a ratio of less than one denotes the molecule inhibits the CT-L activity of the constitutive proteasome better than that of the immunoproteasome. Ratios greater than one signifies the molecule inhibits chymotrypsin-like activity of the immunoproteasome better than that of the constitutive proteasome.
A suitable ELISA assay may be found in U.S. patent application Ser. No. 11/254,541, incorporated herein in its entirety. Briefly, RPMI-8226 cells were treated with 0.1 nM to 1 μM of proteasome Inhibitor B. The samples were then washed with phosphate-buffered saline (PBS) and lysed in hypotonic buffer (20 mM Tris pH 8, 5 mM EDTA) (Tris-HCl and EDTA are available from Teknova, Inc., Hollister, Calif.). Cellular debris was removed by centrifugation at 14,000 rpm in a microfuge (4° C.) for 2 min. The supernatant was transferred to a fresh tube, snap frozen in liquid nitrogen and stored at −80° C. After thawing on ice, the samples (30 μl for assays run in triplicate) were treated with 500 nM of Inhibitor A for 1 hr at room temperature. Following treatment with Inhibitor A, the lysate was denatured by addition of seven volumes of 1% SDS (210 μl) (available from Bio-Rad, Hercules, Calif.) and heating at 99° C. with vigorous shaking for 5 min. The sample was allowed to cool and two volumes (60 μl) of 10% Triton X-100 (available from Bio-Rad, Hercules, Calif.) was added.
Streptavidin sepharose beads (6.5 μl/well) (available from Amersham Biosciences, Piscataway, N.J.), were washed three times with 1 ml PBS (available from Mediatech, Inc., Herndon, Va.) in a microcentrifuge tube. The beads were resuspended in ELISA wash/block buffer (PBS+0.1% Tween 20+1% bovine serum albumin; 20 μl/well) and transferred to the wells of a 96 well filter plate (BSA is available from Sigma, St. Louis, Mo.; Tween is available from Calbiochem, San Diego, Calif.). Denatured whole blood or PBMC lysates that were treated with Inhibitor 3 were added to the filter plate wells containing the streptavidin sepharose beads (each sample assayed in triplicate) and incubated for 1 hr at room temperature with shaking (MultiScreen-DV Opaque Plates with low protein binding durapore membrane; available from Millipore, Billerica, Mass.). The unbound material was removed by gentle filtration and the beads were washed six times with ELISA wash/block buffer (200 μl each).
Primary antibody to human 20S proteasome subunit (35 (rabbit polyclonal antibody; available from Biomol, Plymouth Meeting, Pa.) or human 20S immunoproteasome subunit LMP7 (rabbit polyclonal antibody; available from Affinity BioReagents, Golden, Colo.) was diluted 1:1000 in ELISA wash/block buffer, added to the beads (100 μl/well), and incubated for 1 hr at room temperature on an orbital shaker. The beads were washed six times with ELISA wash/block buffer with gentle filtration. Secondary antibody treatment (1:5000) and washing are as described for primary antibody (goat anti-rabbit antibody-HRP conjugate; available from Biosource, Camarillo, Calif.). The beads were then resuspended in 100 μl chemiluminescent detection reagent (Super Signal Pico Chemiluminescent Substrate™; available from Pierce, Rockford, Ill.) and luminescence was read on a Tecan plate reader. […]

[2] = tested on: chymotryptic-like activity of isolated 20S constitutive proteasome vs immunoproteasome; assay: Enzyme kinetic assay with isolated 20S proteasome preps, EC50 ratio of CT-L activity (20S ratio); type: biochemical; conditions: constitutive proteasome to immunoproteasome, >1 = prefers immunoproteasome
Text: Enzyme kinetic assays such as those disclosed in U.S. application Ser. No. 09/569,748, Example 2 and Stein et al., Biochem. (1996), 35, 3899-3908 use isolated 20S proteasome preps with greater than 90% constitutive proteasome subunits or immunoproteasome subunits. The inhibitory preference of the molecule is then based on the EC50 ratio of the chymotryptic-like activity of the constitutive proteasome to that of the immunoproteasome (20S ratio).

[3] = biological target: T2, 26S proteasome CT-L activity in lysate of HT29 (constitutive) vs Sultan/Thp1 (immunoproteasome) cells (Homo sapiens, UniProt P28062+P28074); assay: CT-L EC50 with 26S proteasome in cell lysate (Lysate ratio); type: biochemical; conditions: HT29 lysate to Sultan/Thp1 lysate, >1 = prefers immunoproteasome
T2 construct: using 26S proteasome in the context of a cell lysate; endogenous in cells; host or cells: HT29 lysate (constitutive); Sultan or THP1 lysate (immunoproteasome)
T2 sequence (P28074 60-263): T1 sequence (P28074 60-263)
T2 sequence (P28062 73-276): T1 sequence (P28062 73-276)
Protocol: Alternatively, the CT-L EC50 of a compound can be determined using 26S proteasome in the context of a cell lysate. Compound is added to lysate generated from cells that either predominantly express constitutive proteasome (e.g., HT29) or immunoproteasome (e.g., THP1). Again, the inhibitory preference is then based on the EC50 ratio (Lysate ratio).

Structure (SMILES) | Elisa ratio (beta5:LMP7) [1] | 20 S ratio (const:immuno) [2] | Lysate ratio (HT29:Sultan/Thp1) [3]
CC(C)C[C@H](NC(=O)OCc1ccccc1)C(=O)N[C@@H](Cc1ccccc1)C(=O)N[C@@H](CC(C)C)C(=O)C1(C)CO1 (stereo partly drawn) | <0.5 | <0.5 | <0.5
Cc1ccc(C[C@H](NC(=O)[C@H](C)NC(=O)OCc2ccccc2)C(=O)N[C@@H](Cc2ccccc2)C(=O)C2(C)CO2)cc1 (stereo partly drawn) | >5.0 | >2.0 | >5.0
CC(NC(=O)OCc1ccccc1)C(=O)N1Cc2ccccc2C[C@@H]1C(=O)N[C@@H](Cc1ccccc1)C(=O)C1(C)CO1 (stereo partly drawn) | <0.5 | <1.0 | <1.0
C[C@H](NC(=O)OCc1ccccc1)C(=O)N[C@@H](Cc1cn(C)c2ccccc12)C(=O)N[C@@H](Cc1ccccc1)C(=O)C1(C)CO1 (stereo partly drawn) | >3.0 | >1.0 | >1.0
C[C@H](NC(=O)OCc1ccccc1)C(=O)N[C@@H](Cc1ccc(C(C)(C)C)cc1)C(=O)N[C@@H](Cc1ccccc1)C(=O)C1(C)CO1 (stereo partly drawn) | >3.0 | >2.0 | >2.0
C[C@@H](NC(=O)OCc1ccccc1)C(=O)N[C@@H](Cc1c[nH]c2ccccc12)C(=O)N[C@@H](Cc1ccc(O)cc1)C(=O)C1(C)CO1 (stereo partly drawn) | >3.0 | >5.0 | >5.0
CC[C@@H](NC(=O)OCc1ccccc1)C(=O)N[C@@H](Cc1ccccc1)C(=O)N[C@@H](Cc1ccccc1)C(=O)C1(C)CO1 (stereo partly drawn) | >3.0 | >5.0 | >5.0
CC1(C(=O)[C@H](Cc2ccccc2)NC(=O)[C@H](Cc2ccccc2)NC(=O)C(CC(=O)O)NC(=O)OCc2ccccc2)CO1 (stereo partly drawn) | >2.0 | >3.0 | >3.0
CC(C)C(NC(=O)OCc1ccccc1)C(=O)N[C@@H](Cc1c[nH]c2ccccc12)C(=O)N[C@@H](Cc1ccccc1)C(=O)C1(C)CO1 (stereo partly drawn) | >5.0 | >5.0 | >5.0
CC(NC(=O)OCc1ccccc1)C(=O)N[C@@H](Cc1cccs1)C(=O)N[C@@H](Cc1ccccc1)C(=O)C1(C)CO1 (stereo partly drawn) | >3.0 | >2.0 | >2.0
CC(NC(=O)OCc1ccccc1)C(=O)N[C@@H](Cc1ccccc1)C(=O)N[C@@H](Cc1ccc(O)cc1)C(=O)C1(C)CO1 (stereo partly drawn) | >3.0 | >5.0 | >3.0
C[C@H](NC(=O)OCc1ccccc1)C(=O)N[C@@H](Cc1c[nH]c2ccccc12)C(=O)N[C@H](C(=O)C1(C)CO1)c1ccccc1 (stereo partly drawn) | >3.0 | >2.0 | >5.0
CC1(C(=O)[C@H](Cc2ccccc2)NC(=O)[C@H](Cc2c[nH]c3ccccc23)NC(=O)[C@H](CCC(N)=O)NC(=O)OCc2ccccc2)CO1 (stereo partly drawn) | >1.0 | >1.0 | >3.0
CC(NC(=O)OCc1ccccc1)C(=O)N[C@@H](Cc1ccc(C(F)(F)F)cc1)C(=O)N[C@@H](Cc1ccccc1)C(=O)C1(C)CO1 (stereo partly drawn) | >1.0 | >5.0 | >2.0
C[C@H](NC(=O)OCc1ccccc1)C(=O)N[C@@H](Cc1ccc(C(F)(F)F)cc1)C(=O)N[C@@H](Cc1ccccc1)C(=O)C1(C)CO1 (stereo partly drawn) | >2.0 | >1.0 | >3.0
CC(C)C(NC(=O)OCc1ccccc1)C(=O)N[C@@H](Cc1ccccc1)C(=O)N[C@@H](Cc1ccccc1)C(=O)C1(C)CO1 (stereo partly drawn) | >2.0 | >5.0 | >2.0

Second part, the compound after the results:

Elisa ratio (beta5:LMP7) [1] | 20 S ratio (const:immuno) [2] | Lysate ratio (HT29:Sultan/Thp1) [3] | Structure (SMILES)
<0.5 | <0.5 | <0.5 | CC(C)C[C@H](NC(=O)CN1CCOCC1)C(=O)N[C@@H](Cc1ccccc1)C(=O)N[C@@H](CC(C)C)C(=O)C1(C)CO1 (stereo partly drawn)
>3.0 | >2.0 | >3.0 | CC(NC(=O)OCc1ccccc1)C(=O)N[C@@H](Cc1ccccc1)C(=O)N[C@@H](CCc1ccccc1)C(=O)C1(C)CO1 (stereo partly drawn)
>5.0 | >2.0 | >2.0 | COc1ccc(C[C@H](NC(=O)C(C)NC(=O)OCc2ccccc2)C(=O)N[C@@H](Cc2ccccc2)C(=O)C2(C)CO2)cc1 (stereo partly drawn) [drawing 86]
>3.0 | >1.0 | >1.0 | CC(NC(=O)OCc1ccccc1)C(=O)N[C@@H](Cc1csc2ccccc12)C(=O)N[C@@H](Cc1ccccc1)C(=O)C1(C)CO1 (stereo partly drawn)
>2.0 | >3.0 | >5.0 | CC1(C(=O)[C@H](Cc2ccccc2)NC(=O)[C@H](Cc2ccccc2)NC(=O)CNC(=O)OCc2ccccc2)CO1 (stereo partly drawn)
>5.0 | >3.0 | >3.0 | CC(NC(=O)OCc1ccccc1)C(=O)N[C@@H](Cc1c[nH]c2ccccc12)C(=O)N[C@@H](Cc1ccc(O)cc1)C(=O)C1(C)CO1 (stereo partly drawn)
>5.0 | >2.0 | >3.0 | CC1(C(=O)[C@H](Cc2ccccc2)NC(=O)[C@H](Cc2ccccc2)NC(=O)[C@H](CCC(N)=O)NC(=O)OCc2ccccc2)CO1 (stereo partly drawn)
>1.0 | >3.0 | >3.0 | CC1(C(=O)[C@H](Cc2ccccc2)NC(=O)[C@H](Cc2c[nH]c3ccccc23)NC(=O)[C@@H](NC(=O)OCc2ccccc2)c2ccccc2)CO1 (stereo partly drawn)
